Where two headings read alike, the source gives them in different places.

The term Ki denotes the dissociation constant of the complex between target and ligand, obtained from inhibition or displacement. In general, CC50 refers to the concentration giving 50% cytotoxicity. The low end stands for harm at low concentration, the high end for better tolerance by the cells.

One data set deals with TolC (E. coli) (Escherichia coli, UniProt P02930). The conditions noted are these: isothermal titration calorimetry; cited from earlier work. A general note: In ITC the heat of successive injections is recorded.
Sequence of TolC (E. coli) (P02930 23-493): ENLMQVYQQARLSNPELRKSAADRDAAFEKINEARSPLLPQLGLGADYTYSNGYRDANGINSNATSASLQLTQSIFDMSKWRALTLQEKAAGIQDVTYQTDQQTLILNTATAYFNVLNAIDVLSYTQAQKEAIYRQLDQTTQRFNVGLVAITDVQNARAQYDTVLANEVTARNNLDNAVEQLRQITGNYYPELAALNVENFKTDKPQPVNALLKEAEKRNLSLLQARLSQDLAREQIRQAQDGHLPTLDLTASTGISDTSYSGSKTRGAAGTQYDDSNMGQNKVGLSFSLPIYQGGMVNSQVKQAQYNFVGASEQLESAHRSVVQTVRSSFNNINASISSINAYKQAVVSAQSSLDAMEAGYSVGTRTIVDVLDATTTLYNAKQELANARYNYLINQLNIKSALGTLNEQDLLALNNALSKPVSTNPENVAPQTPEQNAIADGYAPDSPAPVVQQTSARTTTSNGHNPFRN
Data set [1] deals with Francisella tularensis subspecies Novicida. The format is cell-based.
The subject of a further data set is Francisella philomiragia. The format is cell-based.
A further data set has as its system lawn of E. coli. The format is cell-based. The conditions noted are these: 1.0 tet/0.78 Cohex and 2.0 tet/1.6 mg Cohex disk pairings, overnight at 37° C.
Data set [2] has as its target CorA of Salmonella typhimurium (Salmonella typhimurium, UniProt P0A2R8). The settings on record: cited from earlier work.
Data set [3] deals with CorA of Methanococcus jannaschii (Methanocaldococcus jannaschii, UniProt Q58439). The conditions noted are these: cited from earlier work.
Sequence of CorA of Methanococcus jannaschii (Q58439 whole entry): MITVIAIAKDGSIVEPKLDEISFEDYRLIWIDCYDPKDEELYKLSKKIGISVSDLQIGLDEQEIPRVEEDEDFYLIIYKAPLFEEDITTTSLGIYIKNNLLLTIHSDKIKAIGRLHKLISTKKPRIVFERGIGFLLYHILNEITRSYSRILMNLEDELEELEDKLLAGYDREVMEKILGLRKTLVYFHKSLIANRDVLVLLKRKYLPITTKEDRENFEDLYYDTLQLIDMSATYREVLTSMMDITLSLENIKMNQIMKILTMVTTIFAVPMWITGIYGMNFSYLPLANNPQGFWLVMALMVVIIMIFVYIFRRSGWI
The test system of data set [4] is bacterial growth. The format is cell-based.
A further data set addresses MgtB Mg transporter (Salmonella typhimurium, UniProt P22036). The conditions noted are these: cited from earlier work.
For data set [5], the system named is S. typhimurium strain in which CorA was the only functional Mg2+ transporter. The settings on record: cited from earlier work.
The subject of data set [6] is bacterial growth. The conditions noted are these: cited from earlier work.
For data set [7] the following is noted: mouse, in vivo.

Sequence of CorA of Salmonella typhimurium (P0A2R8 whole entry): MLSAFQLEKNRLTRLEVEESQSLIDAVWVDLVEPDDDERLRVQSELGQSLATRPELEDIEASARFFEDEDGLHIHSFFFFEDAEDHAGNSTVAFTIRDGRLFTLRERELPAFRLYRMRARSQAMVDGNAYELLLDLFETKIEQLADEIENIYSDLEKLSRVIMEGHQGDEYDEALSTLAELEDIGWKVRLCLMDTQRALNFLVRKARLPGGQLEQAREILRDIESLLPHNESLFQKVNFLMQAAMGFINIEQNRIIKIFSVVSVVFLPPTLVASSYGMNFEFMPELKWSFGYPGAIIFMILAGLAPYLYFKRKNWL
Sequence of MgtB Mg transporter (P22036 whole entry): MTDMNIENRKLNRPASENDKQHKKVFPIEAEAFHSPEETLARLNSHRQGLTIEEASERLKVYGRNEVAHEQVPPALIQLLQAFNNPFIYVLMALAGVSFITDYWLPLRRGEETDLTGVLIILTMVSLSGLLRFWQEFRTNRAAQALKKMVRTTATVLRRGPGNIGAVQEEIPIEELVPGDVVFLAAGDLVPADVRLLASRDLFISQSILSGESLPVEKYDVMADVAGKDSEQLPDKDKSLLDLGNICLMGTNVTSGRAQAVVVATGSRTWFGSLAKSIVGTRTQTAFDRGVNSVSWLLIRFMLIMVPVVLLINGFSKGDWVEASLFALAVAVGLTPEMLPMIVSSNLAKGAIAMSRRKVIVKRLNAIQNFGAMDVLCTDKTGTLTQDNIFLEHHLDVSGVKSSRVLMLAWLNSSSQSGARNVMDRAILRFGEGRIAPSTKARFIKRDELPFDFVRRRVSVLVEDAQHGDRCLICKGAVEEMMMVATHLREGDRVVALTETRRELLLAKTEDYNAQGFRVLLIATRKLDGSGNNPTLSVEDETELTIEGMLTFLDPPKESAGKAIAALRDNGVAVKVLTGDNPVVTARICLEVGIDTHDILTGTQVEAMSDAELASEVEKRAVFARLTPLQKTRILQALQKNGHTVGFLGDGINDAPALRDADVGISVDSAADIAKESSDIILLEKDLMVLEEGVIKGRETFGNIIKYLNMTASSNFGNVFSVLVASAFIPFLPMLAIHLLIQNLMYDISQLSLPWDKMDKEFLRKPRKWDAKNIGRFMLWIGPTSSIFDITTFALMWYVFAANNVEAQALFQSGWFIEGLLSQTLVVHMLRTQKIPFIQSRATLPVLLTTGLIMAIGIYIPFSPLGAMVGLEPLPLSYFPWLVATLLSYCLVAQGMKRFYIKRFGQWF

For the substance hexamminecobalt (III) chloride [Cohex], the “Cohex ions bound per trimeric TolC” value at TolC (E. coli) is approximately 1. The “kind of inhibition of the bacterial growth” value (in data set [1]; in the data set with Francisella philomiragia) was “bacteriostatic rather than bacteriocidal” in each case. Moreover, the “zone of inhibition, interaction with tetracycline” value with lawn of E. coli is given as “synergistic effect”. Besides, the “inhibition of 63Ni2+ uptake” value in data set [2] and in data set [3] was “inhibited” throughout. In addition, in [2] (corresponding to the IC50, species not given), the Ki was 0.5 µM. In addition, the “effect of the presence of Cohex on potency of the antibiotic drugs” value in the data set with bacterial growth [4] is given as “increased the potency of the drugs up to about an order of magnitude”. The “effect on bacterial growth” value is listed as “no effect on bacterial growth” with bacterial growth [4] and “prevents bacterial growth at micromolar concentrations” with bacterial growth [6]. For the same substance, the “inhibition of alternate pathways of Mg2+ transport” value on MgtB Mg transporter is on record as “does not inhibit”. Also, the inhibition of growth entry in data set [5] is listed as “inhibited the growth”. In the data set on BHK cells, this substance came in with a CC50 of approximately 3200 µM. In addition, the toxicity to mice result in [7] is reported as “not to be highly toxic”.

Values taken from patent US20100004187A1 (priority 2008, published 2010).
